In the NIST ThermoML archive (doi:10.1016/j.jct.2008.12.003):
Numbers after ± are expanded uncertainties.

Conditions: 101.33 kPa, Liquid, Pycnometric method

| SMILES | mass density (303.15 K) | mass density (313.15 K) | mass density (323.15 K) | mass density (333.15 K) | mass density (343.15 K) |
| --- | --- | --- | --- | --- | --- |
| OCCOCCO [diethylene glycol] | 1109 ± 1 kg/m3 | 1103 ± 1 kg/m3 | 1095 ± 1 kg/m3 | 1088 ± 1 kg/m3 | 1081 ± 1 kg/m3 |
| OCCCOCCCO [4-oxa-1,7-heptanediol] | 1014 ± 1 kg/m3 | 1007 ± 1 kg/m3 | 999 ± 1 kg/m3 | 991 ± 1 kg/m3 | 984 ± 1 kg/m3 |
